Data reported in patent publication US20240207141A1, “PEPTIDE HAVING REPARATIVE DENTIN-REGENERATING ACTIVITY AND USE THEREOF” (SEOUL NATIONAL UNIVERSITY R&DB FOUNDATION, priority 2022, published 2024).
No end group written: not given here.

How the values were obtained:
rat pulp exposure model = test: Rat tooth pulp exposure model, histologic analysis (H&E) of inflammatory response and hard tissue formation; assay type: in vivo
Experimental: Seven-week-old male Sprague-Dawley rats were purchased from the OrientBio after approval from the Institutional Animal Care and Use Committee of Seoul National University (No. SNU-180109-2) was obtained. […] Resin cement (Rely X U-200, 3M ESPE, MN, USA) was used as the final restoration in all experimental groups.
Specifically, the rats were anesthetized by the intraperitoneal injection of 31.25 mg/kg tiletamine/zolazepam and 8.75 mg/kg xylazine. After ascertaining the general anesthesia, the oral cavity was opened with a customized wire to expose the lower first molars. After cleaning and sanitizing with both 3% H2O2 and a 10% Betadine-soaked cotton, the center of the occlusal surface was carefully punctured using a #¼ round bur (0.5 mm in diameter) with a high-speed hand piece. MTA (ProRoot MTA, Dentsply Sirona, York, PA, USA) was mixed according to the manufacturer's instruction and the mixture was applied to the exposed pulp. […] The punctured sites were covered with resin cement after the application of MTA or the collagen sponge. In the Resin group, resin cement was directly applied to the punctured site. The sharp cusp tips of the upper molar and lower first molar were grinded using a football shaped diamond bur in order to prevent tooth fractures by mastication.
Rats were histologically analyzed 2 and 4 weeks after pulp exposure surgery. Whole mandibles were fixed f in 4% paraformaldehyde at 4° ° C. for 24 hours. For histological staining, the specimens were decalcified with 12% EDTA for 4 weeks and embedded in paraffin. […] Each sample was evaluated and scored for inflammatory response and hard tissue formation according to the criteria presented in [Table 2] below.

[1] = tested on: human dental pulp cells (hDPCs); test: Cell viability assay of hDPCs (water-soluble tetrazolium salt); assay type: cell-based; settings: 50, 100 and 200 μg/ml, 24 or 48 hours
Experimental: Human dental pulp cells (hDPCs) were collected from the patient's third molars after patient consent and approval from the Institutional Review Board (IRB) of Seoul National University Dental Hospital (IRB No. CRI19007) were obtained. The hDPCs were passaged three times in Dulbecco's modified Eagle's medium (DMEM; Gibco BRL, Carlsbad, CA, USA) supplemented with 10% fetal bovine serum (FBS) and 1% penicillin/streptomycin (10,000 U/ml penicillin, 10,000 μg/ml streptomycin; Gibco, Paisley, Scotland). In order to induce odontogenic differentiation, the hDPCs were then cultured using DMEM supplemented with 10% FBS, 1% penicillin/streptomycin, 10 mM β-glycerophosphate, 200 μM ascorbic acid, and 0.1 μM dexamethasone.
The viability of hDPCs in the presence of VnP-16 was investigated using an Cytox Cell Viability Assay Kit (DoGenBio, Seoul, Korea). A 96-well culture plate was treated with 50, 100 and 200 μg/ml VnP-16, and then 1.5×10^4 cells were plated into each well, and incubated for 24 or 48 hours at 37° C. The water-soluble tetrazolium salt reagent ([…] ) was added to each well, and the plate was incubated at 37 °C for 2 hours. Finally, absorbance at 450 nm was measured using a microplate reader (Epoch2, Bio-Tek, VT, USA).

[2] = tested on: human dental pulp cells (hDPCs); test: hDPCs cell spreading assay on coated plates; assay type: cell-based; settings: immobilized on plates (vitronectin 0.26 μg/cm2, peptides 10.5 μg/cm2), 3 hours
Experimental: In addition, for the cell spreading assay, hDPCs (3×10^4 cells/250 μL) were incubated at 37° ° C. for 3 hours on each peptide-coated plate in the same manner as above. The attached cells were fixed with 10% formalin and stained with 0.5% crystal violet for 1 hour. Then, the plates were gently washed three times with PBS, and then the degree of cell spreading was assessed by measuring the surface area of the cells using Image Pro Plus software (version 4.5; Media Cybernetics, Silver Spring, MD, USA).

[3] = tested on: human dental pulp cells (hDPCs); test: Scratch wound migration assay; assay type: cell-based; settings: vitronectin 1.25 μg/ml, VnP-16 50 μg/ml; 0, 24 and 48 hours
Experimental: In order to evaluate the migration ability and wound healing ability of hDPCs, the scratch assay was used. The hDPCs were plated in a 24-well plate and incubated in complete medium until 80% confluence. Then, the cells were passaged in serum-free medium for 24 hours, and then stimulated by scratching with a 200 μl pipette tip. After PBS washing to remove cell debris, the cultures were treated with vehicle (10% DMSO), vitronectin (1.25 μg/ml), SP (50 μg/ml), or VnP-16 (50 μg/ml). Pictures were taken using a microscope (Nikon, Tokyo, Japan) at 0, 24 and 48 hours after treatment. The data were analyzed using Image Pro Plus software (version 4.5; Media Cybernetics, MD, USA) to compare the percentage of scratch closure from 0 hour to 48 hours time point. The percentage of: scratch closure was calculated by the following equation: Scratch closure %=[A (0)−A(t)/A(0)]×100. Wherein the scratch area at time zero is “A (0)”; and the area after the incubation time (t) is “A(t)”. The scratch wound migration assay was performed in triplicate.

[4] = tested on: human dental pulp cells (hDPCs); test: hDPCs cell attachment assay on coated plates; assay type: cell-based; settings: immobilized on plates (vitronectin 0.26 μg/cm2, peptides 10.5 μg/cm2), 1 hour
Experimental: First, for the cell attachment assay, 48-well culture plates were coated with human plasma vitronectin (0.26 μg/cm2) at 4° C. for 24 hours. The SP and VnP-16 (10.5 μg/cm2) were also coated on the plates by drying at room temperature for 24 hours. […] The peptide-coated plates were blocked with 1% heat-inactivated bovine serum albumin (BSA) in phosphate-buffered saline (PBS) at 37° ° C. for 1 hour, and then washed with PBS. The hDPCs (5×10^4 cells/250 μL) were added to each plate and incubated at 37° ° C. for 1 hour, and then unattached cells were removed by rinsing the plates twice with PBS. The attached cells were fixed with 10% formalin for 15 minutes and stained with 0.5% crystal violet for 1 hour. The plates were then gently washed three times with double-distilled water. Afterwards, the contents of each well were solubilized in 2% sodium dodecyl sulfate for 5 minutes, and then absorbance at 570 nm was measured using a microplate reader.

## FVWRQFYKYEKG [SP, scrambled peptide used as a negative control]
Rat pulp exposure model; 2 weeks after pulp exposure surgery
  newly formed mineralized tissues at the pulp-exposed sites: hardly detected
Rat pulp exposure model; 4 weeks after pulp exposure surgery
  hard tissue formation: showed hard tissue formation
Rat pulp exposure model; 4 weeks after pulp exposure surgery, H&E
  quality of the reparative dentin: non-tubular and large cell-inclusion structure

## RVYFFKGKQYWE-NH2 [VnP-16]
[1]
  cytotoxicity to hDPCs (cell viability): no cytotoxicity

B1: vitronectin: human plasma vitronectin purchased from Millipore, used as a positive control (protein, UniProt P04004 20-478, looked up)
Vitronectin: DQESCKGRCTEGFNVDKKCQCDELCSYYQSCCTDYTAECKPQVTRGDVFTMPEDEYTVYDDGEEKNNATVHEQVGGPSLTSDLQAQSKGNPEQTPVLKPEEEAPAPEVGASKPEGIDSRPETLHPGRPQPPAEEELCSGKPFDAFTDLKNGSLFAFRGQYCYELDEKAVRPGYPKLIRDVWGIEGPIDAAFTRINCQGKTYLFKGSQYWRFEDGVLDPDYPRNISDGFDGIPDNVDAALALPAHSYSGRERVYFFKGKQYWEYQFQHQPSQEECEGSSLSAVFEHFAMMQRDSWEDIFELLFWGRTSAGTRQPQFISRDWHGVPGQVDAAMAGRIYISGMAPRPSLAKKQRFRHRNRKGYRSQRGHSRGRNQNSRRPSRATWLSLFSSEESNLGANNYDDYRMDWLVPATCEPIQSVFFFSGDKYYRVNLRTRRVDTVDPPYPRSIAQYWLGCPAPGHL
[2]
  cell spreading of hDPCs: strongly promoted cell attachment and spreading
[3]
  wound migration of hDPCs (scratch closure): strongly promoted the wound migration
[4]
  cell attachment of hDPCs: strongly promoted cell attachment and spreading
